# What was measured:
# ANO2 = target: T1, ANO2 (Mus musculus, UniProt Q8CFW1); assay: Apical membrane current in FRT-ANO2 cells; format: cell-based
# T1 sequence (Q8CFW1 1-1002): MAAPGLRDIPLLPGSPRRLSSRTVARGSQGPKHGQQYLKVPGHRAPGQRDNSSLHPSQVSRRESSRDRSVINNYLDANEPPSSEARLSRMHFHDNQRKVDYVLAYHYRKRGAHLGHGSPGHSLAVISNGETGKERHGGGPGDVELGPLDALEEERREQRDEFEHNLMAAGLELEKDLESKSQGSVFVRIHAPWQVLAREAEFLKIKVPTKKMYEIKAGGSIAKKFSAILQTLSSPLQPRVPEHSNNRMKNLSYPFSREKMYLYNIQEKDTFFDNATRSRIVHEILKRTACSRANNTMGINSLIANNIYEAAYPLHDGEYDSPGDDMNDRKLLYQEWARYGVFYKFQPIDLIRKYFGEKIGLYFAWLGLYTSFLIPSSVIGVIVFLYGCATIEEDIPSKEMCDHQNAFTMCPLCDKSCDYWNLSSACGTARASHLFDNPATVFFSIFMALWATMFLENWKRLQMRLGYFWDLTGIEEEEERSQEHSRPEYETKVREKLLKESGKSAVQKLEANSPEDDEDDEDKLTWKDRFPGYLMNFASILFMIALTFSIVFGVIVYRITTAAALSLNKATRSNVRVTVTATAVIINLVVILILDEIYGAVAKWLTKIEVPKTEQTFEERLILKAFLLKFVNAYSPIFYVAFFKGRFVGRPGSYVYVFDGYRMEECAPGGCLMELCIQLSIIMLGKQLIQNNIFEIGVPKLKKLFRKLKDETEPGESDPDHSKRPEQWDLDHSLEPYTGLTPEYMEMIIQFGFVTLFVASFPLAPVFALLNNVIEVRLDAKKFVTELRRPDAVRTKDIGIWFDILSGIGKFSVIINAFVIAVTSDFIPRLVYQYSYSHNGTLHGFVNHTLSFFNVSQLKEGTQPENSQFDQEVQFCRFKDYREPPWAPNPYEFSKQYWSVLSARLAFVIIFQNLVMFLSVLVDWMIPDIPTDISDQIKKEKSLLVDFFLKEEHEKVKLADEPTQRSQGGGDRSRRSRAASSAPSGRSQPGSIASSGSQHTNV
# Procedure: Snapwell inserts containing ANO1, ANO2 or CFTR expressing FRT cells, ENaC expressing T-84 cells or the human primary airway epithelial cells were mounted in Ussing chambers (Physiologic Instruments, San Diego, CA). To induce transcriptional ENaC induction, the polarized T84 cells were incubated with 2 mM sodium butyrate for 2 days. To increase the functional expression of ANO1, the human airway epithelial cells were treated with IL-4 (10 ng/mL) for 2 days. For T-84 and the human primary airway epithelial cells, the apical and basolateral bath were filled with HCO3^—buffered solution containing (in mM): 120 NaCl, 5 KCl, 1 MgCl2, 1 CaCl2, 10 D-glucose, 2.5 HEPES, and 25 NaHCO3 (pH 7.4). For FRT cells, the basolateral bath was filled with the HCO3^—buffered solution and the apical bath was filled with a half-Cl^- solution. In the half-Cl^- solution 65 mM NaCl in the HCO3^—buffered solution was replaced by Na-gluconate. […] ATP was applied to the apical bath solution to induce intracellular calcium increase. […] Apical membrane currents were measured with an EVC4000 Multi-Channel V/I Clamp (World Precision Instruments, Sarasota, FL) and PowerLab 4/35 (AD Instruments, Castle Hill, Australia). Data were analyzed using Labchart Pro 7 (AD Instruments). The sampling rate was 4 Hz.
# ANO1 belongs to anoctamin gene family which contains ten members presenting eight-pass transmembrane segments with cytosolic N- and C-terminals. ANO2 shares a high level of amino acid homology to ANO1 (~60%) and, ANO1 and ANO2 are confirmed CaCCs. However, the roles of other family members (ANO3-ANO10) remain poorly understood and controversial. […] We investigated the effect of these inhibitors on ANO2-mediated apical membrane current in FRT-ANO2 cells.
# mouse ANO2 = target: T2, mouse ANO2 (Mus musculus, UniProt Q8CFW1); assay: YFP quenching assay in FRT cells expressing ANO2; format: cell-based; conditions: up to 10 μM, 100 μM ATP
# T2 sequence (Q8CFW1 1-1002): T1 sequence (Q8CFW1 1-1002)
structure (smiles),measurement,setting,value
"COc1ccccc1C=NNC(=O)COc1ccc(Cl)cc1C [Ani9, 2-(4-chloro-2-methylphenoxy)-N-[(2-methoxyphenyl)methylideneamino]-acetamide]",effect on ATP-induced ANO2 current,ANO2; 1 μM pretreatment,did not affect
same,block of ANO2 current,ANO2; 10 μM pretreatment,10 ± 1.6%
same,inhibitory effect on ANO2,ANO2; higher concentrations (3 and 10 μM),relatively small inhibitory effect
same,effect on ANO2 activity,mouse ANO2,did not significantly affect
